From patent US7632918B2, “Semi-synthetic glycopeptides with antibiotic activity” (Novartis Vaccines and Diagnostics, Inc., priority 2005, dated 2009) come the findings set out here.

Common to all, as to assay: MIC, broth microdilution in Meuller-Hinton broth (NCCLS)
Background: Broth dilution looks for growth in wells or tubes with falling amounts of substance.

For test [1], the system named is 602 S. haemolyticus. It counts as cell-based, Staphylococus haemolyticus. To be noted: clinical isolate. As to the method:
(§1) Antibacterial activity in vitro was investigated by broth microdilution method in Meuller-Hinton broth as recommended by NCCLS. All strains tested were clinical isolates either sensitive or resistant to natural glycopeptides. Results are reported in the tables as MIC (minimal inhibitory concentration) in μg/ml.
(§2) The glycopeptides were tested against a variety of strains, indicated below, including Staphylococus epidermidis, Staphylococus haemolyticus, glycopeptides-intermediate Staphylococus aureus (GISA), glocopeptide-sensitive Enterococcus faecalis (GSE), and glocopeptide-resistant Enterococcus faecalis (GRE). Results are shown in the table as minimum inhibitory concentration (MIC) in units of μg/ml: […]

Test [2] concerns 560 E. faecalis (GRE). It counts as cell-based, Enterococcus faecalis. Conditions: glycopeptide-resistant clinical isolate. As to the method:
as §1, §2

Test [3] deals with 559 E. faecalis (GSE). It counts as cell-based, Enterococcus faecalis. To be noted: glycopeptide-sensitive clinical isolate. As to the method:
as §1, §2

Test [4] relates to 533 S. epidermidis. Format: cell-based, Staphylococus epidermidis. To be noted: clinical isolate. As for the experimental part:
as §1, §2

Test [5] has as its system 3798 S. aureus (GISA). It counts as cell-based, Staphylococus aureus. Conditions: glycopeptides-intermediate clinical isolate. As to the method: as §1, §2
Test [6] has as its system 3797 S. aureus (GISA). Format: cell-based, Staphylococus aureus. To be noted: glycopeptides-intermediate clinical isolate. As for the experimental part:
as §1, §2

For test [7], the system named is 569 E. faecium (GRE). It counts as cell-based. To be noted: glycopeptide-resistant clinical isolate. As to the method:
as §1, §2

For test [8], the system named is 568 E. faecium (GSE). Format: cell-based. To be noted: glycopeptide-sensitive clinical isolate. As to the method:
as §1, §2

≈ marks a conversion by molar mass, not a printed value.

Turning to `CCCCCCCCOc1ccc(CNCC(=O)NC2(C)CC(OC3C(Oc4c5cc6cc4Oc4ccc(cc4Cl)C(O)C(NC(=O)C(CC(C)C)NC)C(=O)NC(CC(N)=O)C(=O)NC6C(=O)NC4C(=O)NC(C(=O)NC(C(=O)O)c6cc(O)cc(O)c6-c6cc4ccc6O)C(OC4CC(C)(N)C(O)C(C)O4)c4ccc(cc4)O5)OC(CO)C(O)C3O)OC(C)C2O)cc1` (stereo not shown) [Compound 214], the “MIC 602 S. haemolyticus” value in test [1] was 1 µg/mL (≈ 0.545 µM). Moreover, the “MIC 560 E. faecalis (GRE)” value in test [2] stood at 8 µg/mL (≈ 4.36 µM). Also, in test [3], the “MIC 559 E. faecalis (GSE)” value came to 1 µg/mL (≈ 0.545 µM). The “MIC 533 S. epidermidis” value in test [4] was 1 µg/mL (≈ 0.545 µM). For the same compound, the “MIC 3798 S. aureus (GISA)” value in test [5] worked out at 4 µg/mL (≈ 2.18 µM). The “MIC 3797 S. aureus (GISA)” value in test [6] came out at 4 µg/mL (≈ 2.18 µM). In addition, the “MIC 569 E. faecium (GRE)” value in test [7] was 8 µg/mL (≈ 4.36 µM). In test [8], the “MIC 568 E. faecium (GSE)” value was 0.5 µg/mL (≈ 0.273 µM).
`CCCCOc1ccc(CNCC(=O)NC2(C)CC(OC3C(Oc4c5cc6cc4Oc4ccc(cc4Cl)C(O)C4NC(=O)C(NC(=O)C6NC(=O)C(CC(N)=O)NC(=O)C(NC(=O)C(CC(C)C)NC)C(O)c6ccc(c(Cl)c6)O5)c5ccc(O)c(c5)-c5c(O)cc(O)cc5C(C(=O)O)NC4=O)OC(CO)C(O)C3O)OC(C)C2O)cc1` (stereo not shown) [Compound 218]: in test [1], the “MIC 602 S. haemolyticus” value amounted to 0.13 µg/mL (≈ 0.0779 µM). In addition, in test [2], the “MIC 560 E. faecalis (GRE)” value is greater than 64 µg/mL. Moreover, the “MIC 559 E. faecalis (GSE)” value in test [3] was 1 µg/mL (≈ 0.599 µM). Besides, in test [4], the “MIC 533 S. epidermidis” value was determined as 0.13 µg/mL (≈ 0.0779 µM). Moreover, in test [5], the “MIC 3798 S. aureus (GISA)” value turned out to be 1 µg/mL (≈ 0.599 µM). Moreover, in test [6], the “MIC 3797 S. aureus (GISA)” value was 0.5 µg/mL (≈ 0.3 µM). Besides, the “MIC 569 E. faecium (GRE)” value in test [7] is greater than 64 µg/mL. Further, in test [8], the “MIC 568 E. faecium (GSE)” value is 0.5 µg/mL (≈ 0.3 µM).
Consider `CNC(CC(C)C)C(=O)NC1C(=O)NC(CC(N)=O)C(=O)NC2C(=O)NC3C(=O)NC(C(=O)NC(C(=O)O)c4cc(O)cc(O)c4-c4cc3ccc4O)C(OC3CC(C)(N)C(O)C(C)O3)c3ccc(cc3)Oc3cc2cc(c3OC2OC(CO)C(O)C(O)C2OC2CC(C)(NC(=O)CNCc3ccc(OCc4ccccc4)cc3)C(O)C(C)O2)Oc2ccc(cc2Cl)C1O` (stereo not shown) [Compound 223], for which the “MIC 602 S. haemolyticus” value in test [1] stood at 4 µg/mL (≈ 2.21 µM). Further, the “MIC 560 E. faecalis (GRE)” value in test [2] worked out at 64 µg/mL (≈ 35.3 µM). Moreover, the “MIC 559 E. faecalis (GSE)” value in test [3] amounted to 2 µg/mL (≈ 1.1 µM). For the same compound, in test [4], the “MIC 533 S. epidermidis” value is 2 µg/mL (≈ 1.1 µM). Besides, the “MIC 3798 S. aureus (GISA)” value in test [5] was 8 µg/mL (≈ 4.42 µM). Besides, in test [6], the “MIC 3797 S. aureus (GISA)” value worked out at 8 µg/mL (≈ 4.42 µM). Moreover, the “MIC 569 E. faecium (GRE)” value in test [7] was 16 µg/mL (≈ 8.83 µM). The “MIC 568 E. faecium (GSE)” value in test [8] came to 2 µg/mL (≈ 1.1 µM).
`CNC(CC(C)C)C(=O)NC1C(=O)NC(CC(N)=O)C(=O)NC2C(=O)NC3C(=O)NC(C(=O)NC(C(=O)O)c4cc(O)cc(O)c4-c4cc3ccc4O)C(OC3CC(C)(N)C(O)C(C)O3)c3ccc(cc3)Oc3cc2cc(c3OC2OC(CO)C(O)C(O)C2OC2CC(C)(NC(=O)CNCc3c[nH]c4ccc(OCc5ccccc5)cc34)C(O)C(C)O2)Oc2ccc(cc2Cl)C1O` (stereo not shown) [Compound 224]: the “MIC 602 S. haemolyticus” value in test [1] is 2 µg/mL (≈ 1.08 µM). Further, the “MIC 560 E. faecalis (GRE)” value in test [2] was greater than 64 µg/mL. Moreover, the “MIC 559 E. faecalis (GSE)” value in test [3] is 2 µg/mL (≈ 1.08 µM). Also, in test [4], the “MIC 533 S. epidermidis” value stood at 2 µg/mL (≈ 1.08 µM). For the same compound, in test [5], the “MIC 3798 S. aureus (GISA)” value was 8 µg/mL (≈ 4.32 µM). The “MIC 3797 S. aureus (GISA)” value in test [6] is 8 µg/mL (≈ 4.32 µM). Moreover, in test [7], the “MIC 569 E. faecium (GRE)” value was determined as 16 µg/mL (≈ 8.65 µM). Besides, the “MIC 568 E. faecium (GSE)” value in test [8] amounted to 1 µg/mL (≈ 0.54 µM).
As for `CNC(CC(C)C)C(=O)NC1C(=O)NC(CC(N)=O)C(=O)NC2C(=O)NC3C(=O)NC(C(=O)NC(C(=O)O)c4cc(O)cc(O)c4-c4cc3ccc4O)C(OC3CC(C)(N)C(O)C(C)O3)c3ccc(cc3)Oc3cc2cc(c3OC2OC(CO)C(O)C(O)C2OC2CC(C)(NC(=O)CNCc3cn(Cc4ccccc4)c4ccccc34)C(O)C(C)O2)Oc2ccc(cc2Cl)C1O` (stereo not shown) [Compound 225], the “MIC 602 S. haemolyticus” value in test [1] is 2 µg/mL (≈ 1.09 µM). In addition, in test [2], the “MIC 560 E. faecalis (GRE)” value was 64 µg/mL (≈ 34.9 µM). For the same compound, the “MIC 559 E. faecalis (GSE)” value in test [3] was found to be 2 µg/mL (≈ 1.09 µM). Also, in test [4], the “MIC 533 S. epidermidis” value was found to be 1 µg/mL (≈ 0.545 µM). For the same compound, in test [5], the “MIC 3798 S. aureus (GISA)” value came to 4 µg/mL (≈ 2.18 µM). In addition, in test [6], the “MIC 3797 S. aureus (GISA)” value is 4 µg/mL (≈ 2.18 µM). Besides, in test [7], the “MIC 569 E. faecium (GRE)” value worked out at 16 µg/mL (≈ 8.72 µM). In addition, the “MIC 568 E. faecium (GSE)” value in test [8] came to 4 µg/mL (≈ 2.18 µM).
